Biological target: N-terminal active peptide segment (MI-N899) of POLQ with ATPase activity (Homo sapiens (Human), UniProt O75417)
Assay: POLQ enzyme activity inhibition experiment (ATPase, NADH-coupled, OD 340 nm)
Type: biochemical
Details: 100 nM POLQ (N), 100 μM ATP, 300 nM dT50
Experimental: The Envision microplate reader from Perkin Elmer Inc was used to measure the reduction of OD value of NADH at 340 nm, thus reflecting the enzyme activity. Experimental method: The POLQ enzyme was diluted to 100 nM with a reaction buffer (20 mM Tris HCl (pH 7.80), 80 mM KCl, 10 mM MgCl2, 1 mM DTT, 0.01% w/v bovine serum albumin, 0.01% v/v Tween-20, and 5% v/v glycerol). The compounds to be tested were diluted to different concentrations in dimethyl sulfoxide (DMSO) using the Echo 650 pipetting system, and transferred to a 384-well plate, 20 μL/well of 100 nM POLQ was added, and the mixture was incubated at room temperature for 15 minutes. A reaction mixture solution was formulated, and the concentration of each component in the reaction mixture solution was: 100 μM ATP, 300 nM […], 300 μM NADH, 6 mM PEP, 10 U/mL lactate dehydrogenase and 20 U/mL pyruvate kinase. 20 μL/well of reaction mixture solution was added to start the enzyme reaction. […] The concentration range was from 10 μM to 0.0005 μM, and the final concentration of DMSO in the system was 0.2% v/v. The 384-well plate was reacted at room temperature for 20 minutes, and then the OD value at 340 nm was read with an Envision microplate reader. The inhibition rate was calculated, and XLfit software was used to perform fitting to obtain IC50 of the compounds. In the experiment, a blank group and a DMSO group were set up, respectively.

Sequence of N-terminal active peptide segment (MI-N899) of POLQ with ATPase activity (O75417 1-899 limits assumed): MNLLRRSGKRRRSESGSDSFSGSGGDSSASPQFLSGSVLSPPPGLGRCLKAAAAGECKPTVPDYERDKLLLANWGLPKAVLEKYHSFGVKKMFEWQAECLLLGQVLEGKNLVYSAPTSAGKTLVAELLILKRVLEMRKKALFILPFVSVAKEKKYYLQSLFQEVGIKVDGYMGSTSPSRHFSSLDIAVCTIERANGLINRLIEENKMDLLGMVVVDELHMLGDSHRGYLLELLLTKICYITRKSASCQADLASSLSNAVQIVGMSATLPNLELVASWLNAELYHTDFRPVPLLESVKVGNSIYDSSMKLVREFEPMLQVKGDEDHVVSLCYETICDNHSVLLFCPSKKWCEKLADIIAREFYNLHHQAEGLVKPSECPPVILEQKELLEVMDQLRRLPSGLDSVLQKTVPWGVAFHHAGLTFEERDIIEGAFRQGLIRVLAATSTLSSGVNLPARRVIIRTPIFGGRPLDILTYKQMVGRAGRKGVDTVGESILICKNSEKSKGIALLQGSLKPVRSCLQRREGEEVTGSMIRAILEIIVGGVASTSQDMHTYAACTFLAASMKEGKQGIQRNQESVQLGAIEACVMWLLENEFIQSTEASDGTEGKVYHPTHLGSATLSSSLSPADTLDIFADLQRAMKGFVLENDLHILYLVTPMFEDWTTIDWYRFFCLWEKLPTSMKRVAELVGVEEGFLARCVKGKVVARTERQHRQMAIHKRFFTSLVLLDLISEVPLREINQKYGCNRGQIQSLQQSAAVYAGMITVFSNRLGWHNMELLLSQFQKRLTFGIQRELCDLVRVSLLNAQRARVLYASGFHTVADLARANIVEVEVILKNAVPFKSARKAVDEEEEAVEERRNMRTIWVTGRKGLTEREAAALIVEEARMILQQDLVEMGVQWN

SMILES | IC50 [nM]
COc1ccccc1-c1cnccc1C(=O)Nc1nc2ccc(-c3ccc(Cl)cc3)nc2s1 [Compound 1, N-(5-(4-chlorophenyl)thiazolo[5,4-b]pyridin-2-yl)-3-(2-methoxyphenyl)pyridine-4-carboxamide] | 100 to 500
COc1ccccc1-c1cnccc1C(=O)Nc1nc2ncc(-c3ccc(Cl)cc3)nc2s1 [Compound 2, N-(6-(4-chlorophenyl)thiazolo[4,5-b]pyrazin-2-yl)-3-(2-methoxyphenyl)pyridine-4-carboxamide] | < 100
COc1cccc(F)c1-c1cnccc1C(=O)Nc1nc2ncc(-c3ccc(Cl)cc3)nc2s1 [Compound 3, N-(6-(4-chlorophenyl)thiazolo[4,5-b]pyrazin-2-yl)-3-(2-fluoro-6-methoxyphenyl)pyridine-4-carboxamide] | < 100
COc1ccccc1-c1cc(C)ncc1C(=O)Nc1nc2ncc(-c3ccc(Cl)cc3)nc2s1 [Compound 4] | < 100
COc1ccccc1-c1cnccc1C(=O)Nc1nc2ncc(-c3cccc(Cl)c3)nc2s1 [Compound 5, N-(6-(3-chlorophenyl)thiazolo[4,5-b]pyrazin-2-yl)-3-(2-methoxyphenyl)pyridine-4-carboxamide] | < 100
COc1ccccc1-c1cnccc1C(=O)Nc1nc2ncc(-c3ccc(C)cc3)nc2s1 [Compound 6, 3-(2-methoxyphenyl)-N-(6-(4-methylphenyl)thiazolo[4,5-b]pyrazin-2-yl)pyridine-4-carboxamide] | < 100
COc1ccc(-c2cnc3nc(NC(=O)c4ccncc4-c4ccccc4OC)sc3n2)cc1 [Compound 7, 3-(2-methoxyphenyl)-N-(6-(4-methoxyphenyl)thiazolo[4,5-b]pyrazin-2-yl)pyridine-4-carboxamide] | < 100
COc1ccccc1-c1cnccc1C(=O)Nc1nc2cnc(-c3ccc(Cl)cc3)nc2s1 [Compound 8, N-(5-(4-chlorophenyl)thiazolo[5,4-d]pyrimidin-2-yl)-3-(2-methoxyphenyl)pyridine-4-carboxamide] | < 100
COc1ccccc1-c1cnccc1C(=O)Nc1nc2ncc(-c3ccc(Cl)cc3)cc2s1 [Compound 10, N-(6-(4-chlorophenyl)thiazolo[4,5-b]pyridin-2-yl)-3-(2-methoxyphenyl)isonicotinamide] | < 100
COc1ccccc1-c1cnccc1C(=O)Nc1nc2ncc(-c3ccc(C#N)nc3)nc2s1 [Compound 11, N-(6-(6-cyanopyridin-3-yl)thiazolo[4,5-b]pyrazin-2-yl)-3-(2-methoxyphenyl)isonicotinamide] | < 100
COc1ccccc1-c1cnccc1C(=O)Nc1nc2ncc(-c3ccc(C#N)c(F)c3)nc2s1 [Compound 12, N-(6-(4-cyano-3-fluorophenyl)thiazolo[4,5-b]pyrazin-2-yl)-3-(2-methoxyphenyl)isonicotinamide] | < 100
COc1ccccc1-c1cnccc1C(=O)Nc1nc2ncc(-c3ccc(C#N)cc3F)nc2s1 [Compound 13, N-(6-(4-cyano-2-fluorophenyl)thiazolo[4,5-b]pyrazin-2-yl)-3-(2-methoxyphenyl)isonicotinamide] | < 100
COc1cc(-c2cnc3nc(NC(=O)c4ccncc4-c4ccccc4OC)sc3n2)ccc1C#N [Compound 14, N-(6-(4-cyano-3-methoxyphenyl)thiazolo[4,5-b]pyrazin-2-yl)-3-(2-methoxyphenyl)isonicotinamide] | < 100
COc1cc(C#N)ccc1-c1cnc2nc(NC(=O)c3ccncc3-c3ccccc3OC)sc2n1 [Compound 15, N-(6-(4-cyano-2-methoxyphenyl)thiazolo[4,5-b]pyrazin-2-yl)-3-(2-methoxyphenyl)isonicotinamide] | < 100
COc1cccc(F)c1-c1cc(C#N)ncc1C(=O)Nc1nc2ncc(-c3ccc(Cl)cc3)nc2s1 [Compound 17, N-(6-(4-chlorophenyl)thiazolo[4,5-b]pyrazin-2-yl)-6-cyano-4-(2-fluoro-6-methoxyphenyl)nicotinamide] | < 100
N#Cc1cc(-c2ccccc2OC(F)F)c(C(=O)Nc2nc3ncc(-c4ccc(Cl)cc4)nc3s2)cn1 [Compound 18, N-(6-(4-chlorophenyl)thiazolo[4,5-b]pyrazin-2-yl)-6-cyano-4-(2-(difluoromethoxy)phenyl)nicotinamide] | < 100
COc1ccccc1-c1cc(C#N)ncc1C(=O)Nc1nc2ncc(-c3ccc(=O)n(C)c3)nc2s1 [Compound 19, 6-cyano-4-(2-methoxyphenyl)-N-(6-(1-methyl-6-oxo-1,6-dihydropyridin-3-yl)thiazolo[4,5-b]pyrazin-2-yl)nicotinamide] | < 100
COc1ccc(C#N)cc1-c1cc(C)ncc1C(=O)Nc1nc2ncc(-c3ccc(C4CC4)cn3)nc2s1 [Compound 22, 4-(5-cyano-2-methoxyphenyl)-N-(6-(5-cyclopropylpyridin-2-yl)thiazolo[4,5-b]pyrazin-2-yl)-6-methylnicotinamide] | < 100
COc1ccccc1-c1cc(C#N)ncc1C(=O)Nc1nc2ncc(-c3ccc(Cl)cc3)nc2s1 [Compound 28, N-(6-(4-chlorophenyl)thiazolo[4,5-b]pyrazin-2-yl)-6-cyano-4-(2-methoxyphenyl)pyridine-3-carboxamide] | < 100
C#Cc1ccccc1-c1cnccc1C(=O)Nc1nc2ncc(-c3ccc(Cl)cc3)nc2s1 [Compound 29, N-(6-(4-chlorophenyl)thiazolo[4,5-b]pyrazin-2-yl)-3-(2-ethynylphenyl)pyridine-4-carboxamide] | < 100
COc1ccccc1-c1cc(C)ncc1C(=O)Nc1nc2ncc(-c3ccc(C#N)cc3)nc2s1 [Compound 31, N-(6-(4-cyanophenyl)thiazolo[4,5-b]pyrazin-2-yl)-4-(2-methoxyphenyl)-6-methylpyridine-3-carboxamide] | < 100
COc1ccccc1-c1cc(C#N)ncc1C(=O)Nc1nc2ncc(-c3ccc(C#N)cc3)nc2s1 [Compound 35, 6-cyano-N-(6-(4-cyanophenyl)thiazolo[4,5-b]pyrazin-2-yl)-4-(2-methoxyphenyl)pyridine-3-carboxamide] | < 100
COc1ccccc1-c1cc(C(F)(F)F)ncc1C(=O)Nc1nc2ncc(-c3ccc(C#N)cc3)nc2s1 [Compound 36, N-(6-(4-cyanophenyl)thiazolo[4,5-b]pyrazin-2-yl)-4-(2-methoxyphenyl)-6-(trifluoromethyl)pyridine-3-carboxamide] | < 100
N#Cc1ccc(C(=O)Nc2nc3ncc(-c4ccc(Cl)cc4)nc3s2)c(-c2ccccc2C#N)c1 [Compound 37, N-(6-(4-chlorophenyl)thiazolo[4,5-b]pyrazin-2-yl)-2′,5-dicyano-[1,1′-biphenyl]-2-carboxamide] | < 100
C#Cc1ccccc1-c1cc(C#N)ncc1C(=O)Nc1nc2ncc(-c3ccc(Cl)cc3)nc2s1 [Compound 38, N-(6-(4-chlorophenyl)thiazolo[4,5-b]pyrazin-2-yl)-6-cyano-4-(2-ethynylphenyl)pyridine-3-carboxamide] | < 100
N#Cc1ccc(-c2cnc3nc(NC(=O)c4cnc(C#N)cc4N4CCOCC4)sc3n2)cc1 [Compound 39, 6-cyano-N-(6-(4-cyanophenyl)thiazolo[4,5-b]pyrazin-2-yl)-4-morpholinopyridine-3-carboxamide] | < 100
COc1cc(C#N)ccc1-c1cnccc1C(=O)Nc1nc2ncc(-c3ccc(C#N)cc3)nc2s1 [Compound 40, 3-(4-cyano-2-methoxyphenyl)-N-(6-(4-cyanophenyl)thiazolo[4,5-b]pyrazin-2-yl)pyridine-4-carboxamide] | < 100

From patent publication US20250122221A1 (NANJING ZAIMING PHARMACEUTICAL CO., LTD., priority 2022, published 2025)
